Earlier results, collected in patent publication US20060148728A1 (priority 2000, published 2006).

Details: in vivo; cited from earlier work

In the case of `COc1cc([C@@H]2c3cc4c(cc3[C@@H](O[C@@H]3O[C@@H]5CO[C@@H](C)O[C@H]5[C@H](O)[C@H]3O)[C@H]3COC(=O)[C@H]23)OCO4)cc(OC)c1O` [Etoposide], the “Bioavailability of oral etoposide” value is given as 40-75%.
